Here are results for 7 molecules from ChEMBL document CHEMBL5303573, “Mapping human microbiome drug metabolism by gut bacteria and their genes” (Nature, 2019).

The nature of series [1]: The drug is tested on Anaerotruncus colihominis strain: DSM17241 for biotransformation. The drug concentrations were measured before and after a 12-h incubation by liquid-chromatography-coupled mass spectrometry (LC–MS). The conditions noted are these: 2 µM.
The nature of series [2]: The drug is tested on Escherichia coli strain: BW25113 for biotransformation. The drug concentrations were measured before and after a 12-h incubation by liquid-chromatography-coupled mass spectrometry (LC–MS). The conditions noted are these: 2 µM.
Series [3] is described as follows: The drug is tested on Clostridium sp. strain: fecal isolate for biotransformation. The drug concentrations were measured before and after a 12-h incubation by liquid-chromatography-coupled mass spectrometry (LC–MS). The conditions noted are these: 2 µM.
Series [4] is described as follows: The drug is tested on Clostridium asparagiforme strain: DSM15981 for biotransformation. The drug concentrations were measured before and after a 12-h incubation by liquid-chromatography-coupled mass spectrometry (LC–MS). Type of series: ADME. Set-up: dose 2 uM, timepoint 0 vs 12 hours. As to conditions: enterocloster asparagiformis, 2 µM.
Series [5] in a line: The drug is tested on Ruminococcus torques strain: ATCC27756 for biotransformation. The drug concentrations were measured before and after a 12-h incubation by liquid-chromatography-coupled mass spectrometry (LC–MS). As to conditions: 2 µM. It is filed as ADME. Set-up: dose 2 uM, timepoint 0 vs 12 hours.
For series [6] the following is noted: bifidobacterium adolescentis, 12 h, 2 µM.
Description: The drug is tested on Bifidobacterium adolescentis strain: ATCC 15703 for biotransformation. The drug concentrations were measured before and after a 12-h incubation by liquid-chromatography-coupled mass spectrometry (LC–MS)
Series [7] in a line: The drug is tested on Bacteroides pectinophilus strain: ATCC43243 for biotransformation. The drug concentrations were measured before and after a 12-h incubation by liquid-chromatography-coupled mass spectrometry (LC–MS). The conditions noted are these: 2 µM.
The nature of series [8]: The drug is tested on Bacteroides ovatus strain: ATCC8483 for biotransformation. The drug concentrations were measured before and after a 12-h incubation by liquid-chromatography-coupled mass spectrometry (LC–MS). As to conditions: 2 µM.
Series [9] is described as follows: The drug is tested on Eggerthella lenta strain: ATCC25559 for biotransformation. The drug concentrations were measured before and after a 12-h incubation by liquid-chromatography-coupled mass spectrometry (LC–MS). The conditions noted are these: 2 µM.
Series [10] is described as follows: The drug is tested on Bacteroides uniformis strain: ATCC8492 for biotransformation. The drug concentrations were measured before and after a 12-h incubation by liquid-chromatography-coupled mass spectrometry (LC–MS). The conditions noted are these: 2 µM.
For series [11] the following is noted: bacteroides eggerthii, 12 h, 2 µM.
Description: The drug is tested on Bacteroides eggerthii strain: DSM20697 for biotransformation. The drug concentrations were measured before and after a 12-h incubation by liquid-chromatography-coupled mass spectrometry (LC–MS)
Series [12] in a line: The drug is tested on Enterococcus faecalis strain: V583 for biotransformation. The drug concentrations were measured before and after a 12-h incubation by liquid-chromatography-coupled mass spectrometry (LC–MS). The conditions noted are these: 2 µM.
Series [13] is described as follows: The drug is tested on Bifidobacterium ruminantium strain: fecal isolate for biotransformation. The drug concentrations were measured before and after a 12-h incubation by liquid-chromatography-coupled mass spectrometry (LC–MS). The conditions noted are these: 2 µM.
Series [14] is described as follows: The drug is tested on Enterobacter cancerogenus strain: ATCC35316 for biotransformation. The drug concentrations were measured before and after a 12-h incubation by liquid-chromatography-coupled mass spectrometry (LC–MS). The conditions noted are these: 2 µM.
Series [15] in a line: The drug is tested on Clostridium scindens strain: ATCC35704 for biotransformation. The drug concentrations were measured before and after a 12-h incubation by liquid-chromatography-coupled mass spectrometry (LC–MS). The conditions noted are these: 2 µM.
A short description of series [16]: The drug is tested on Ruminococcus gnavus strain: ATCC29149 for biotransformation. The drug concentrations were measured before and after a 12-h incubation by liquid-chromatography-coupled mass spectrometry (LC–MS). As to conditions: mediterraneibacter gnavus, 2 µM.
A short description of series [17]: The drug is tested on Dorea formicigenerans strain: ATCC27755 for biotransformation. The drug concentrations were measured before and after a 12-h incubation by liquid-chromatography-coupled mass spectrometry (LC–MS). The conditions noted are these: 2 µM.
Series [18] in a line: The drug is tested on Providencia rettgeri strain: DSM1131 for biotransformation. The drug concentrations were measured before and after a 12-h incubation by liquid-chromatography-coupled mass spectrometry (LC–MS). Type of series: ADME. Set-up: dose 2 uM, timepoint 0 vs 12 hours. As to conditions: 2 µM.
Series [19] is described as follows: The drug is tested on Subdoligranulum variabile strain: DSM15176 for biotransformation. The drug concentrations were measured before and after a 12-h incubation by liquid-chromatography-coupled mass spectrometry (LC–MS). The conditions noted are these: 2 µM.
The nature of series [20]: The drug is tested on Bacteroides dorei strain: DSM17855 for biotransformation. The drug concentrations were measured before and after a 12-h incubation by liquid-chromatography-coupled mass spectrometry (LC–MS). The conditions noted are these: phocaeicola dorei, 2 µM.

For `CN1C(=O)CCS(=O)(=O)C1c1ccc(Cl)cc1` (centres undefined) [CHLORMEZANONE], the “Bacterial Biotransformation” value is listed as “Compound NOT metabolized” in series [1]; “Compound NOT metabolized” in series [2]; “Compound metabolized” in [3]; “Compound metabolized” in series [4]; “Compound NOT metabolized” in [5]; “Compound NOT metabolized” in series [6]. Further, the “Bacterial Biotransformation” value in series [7], in [8], in series [9], in series [10], in series [11] and in [12] was “Compound NOT metabolized” in each case. Further, the “Bacterial Biotransformation” value in series [13] is “Compound metabolized”; in [14], “Compound NOT metabolized”; in series [15] it was “Compound NOT metabolized”.

Regarding `CC(C)NCC(O)COc1ccc(CCOCC2CC2)cc1` (centres undefined) [BETAXOLOL], the “Bacterial Biotransformation” value in series [16], in series [1], in series [2], in [3], in series [4] and in series [5] was “Compound NOT metabolized” in each case. The “Bacterial Biotransformation” value in series [6], in series [7], in series [17], in series [8], in series [9] and in series [10] was “Compound NOT metabolized” each time. In addition, the “Bacterial Biotransformation” value in [11], in [12], in [18] and in [15] was “Compound NOT metabolized” in each case.

With `O=P1(N(CCCl)CCCl)NCCCO1` (centres undefined) [CYCLOPHOSPHAMIDE ANHYDROUS], the “Bacterial Biotransformation” value in [16], in [2], in series [3], in series [5], in series [6] and in series [8] was “Compound NOT metabolized” throughout. The “Bacterial Biotransformation” value in series [9], in series [10], in [19], in series [11], in series [12] and in series [13] was “Compound NOT metabolized” throughout. Further, the “Bacterial Biotransformation” value in series [14] is given as “Compound NOT metabolized”.

Consider `CCOc1cc(CC(=O)N[C@@H](CC(C)C)c2ccccc2N2CCCCC2)ccc1C(=O)O` [REPAGLINIDE], for which the “Bacterial Biotransformation” value in [16] was “Compound NOT metabolized”; in series [1], “Compound NOT metabolized”; in series [3], “Compound NOT metabolized”; in series [4], “Compound metabolized”; in [5], “Compound NOT metabolized”; in series [6], “Compound NOT metabolized”. In addition, the “Bacterial Biotransformation” value in series [7] was “Compound NOT metabolized”; in series [17] it was “Compound NOT metabolized”; in [8], “Compound NOT metabolized”; in series [9], “Compound NOT metabolized”; in series [20], “Compound metabolized”; in series [10], “Compound metabolized”. In addition, the “Bacterial Biotransformation” value in [11] was “Compound metabolized”; in series [12], “Compound NOT metabolized”; in series [13] it was “Compound NOT metabolized”; in series [14], “Compound NOT metabolized”; in series [18], “Compound NOT metabolized”; in series [15], “Compound NOT metabolized”.

As to `CN1C[C@H](C(=O)N[C@]2(C)O[C@@]3(O)[C@@H]4CCCN4C(=O)[C@H](Cc4ccccc4)N3C2=O)C=C2c3cccc4[nH]cc(c34)C[C@H]21.CN1C[C@H](C(=O)N[C@]2(C)O[C@@]3(O)[C@@H]4CCCN4C(=O)[C@H](Cc4ccccc4)N3C2=O)C=C2c3cccc4[nH]cc(c34)C[C@H]21.O=C(O)C(O)C(O)C(=O)O` [ERGOTAMINE TARTRATE], the “Bacterial Biotransformation” value is “Compound metabolized” in [16]; “Compound metabolized” in series [1]; “Compound metabolized” in series [2]; “Compound metabolized” in series [4]; “Compound NOT metabolized” in [5]; “Compound metabolized” in series [6]. The “Bacterial Biotransformation” value is listed as “Compound metabolized” in series [7]; “Compound NOT metabolized” in series [17]; “Compound metabolized” in series [8]; “Compound NOT metabolized” in series [9]; “Compound metabolized” in series [20]; “Compound metabolized” in series [10]. The “Bacterial Biotransformation” value in series [11] is listed as “Compound metabolized”; in [12], “Compound NOT metabolized”; in series [13], “Compound metabolized”; in [14] it was “Compound metabolized”; in series [18], “Compound metabolized”; in series [15], “Compound metabolized”.

`Br.CN(C)CCCC1(c2ccc(F)cc2)OCc2cc(C#N)ccc21` (centres undefined) [CITALOPRAM HYDROBROMIDE]: the “Bacterial Biotransformation” value in [16], in series [1], in series [2], in series [3], in [4] and in [5] was “Compound NOT metabolized” in each case. Besides, the “Bacterial Biotransformation” value in series [6], in [7], in series [17], in [8], in series [9] and in [11] was “Compound NOT metabolized” throughout. The “Bacterial Biotransformation” value in series [12], in [13], in series [18] and in series [15] was “Compound NOT metabolized” each time.

Regarding `COc1ccc2c(c1OC)C(=O)O[C@@H]2[C@H]1c2c(cc3c(c2OC)OCO3)CCN1C` [NOSCAPINE], the “Bacterial Biotransformation” value is “Compound NOT metabolized” in [16]; “Compound metabolized” in series [1]; “Compound NOT metabolized” in [2]; “Compound metabolized” in series [4]; “Compound metabolized” in series [5]; “Compound NOT metabolized” in series [6]. For the same molecule, the “Bacterial Biotransformation” value was “Compound metabolized” in series [7]; “Compound metabolized” in series [17]; “Compound metabolized” in series [8]; “Compound NOT metabolized” in [9]; “Compound metabolized” in series [20]; “Compound metabolized” in series [10]. Further, the “Bacterial Biotransformation” value in series [11] is recorded as “Compound NOT metabolized”; in series [12], “Compound metabolized”; in series [13] it was “Compound metabolized”; in series [14] it was “Compound metabolized”; in series [18], “Compound metabolized”; in series [15], “Compound metabolized”.
